Source: patent US20230389543A1, “SOLID PHASE MATRIX FOR CROP PROTECTION” (North Carolina State University, priority 2020, published 2023)
Values joined by “and” are separate entries in the source; they are usually repeats but may differ in a detail not shown here. Equal values may be shown once.

Experiments:
Root Knot Nematode = assay: Sweet potato field trial, root knot nematode count at harvest; type: in vivo, Meloidogyne enterolobii
Description: (§1) Location: The field trial was conducted on a farm in Woodington, NC. The field was confirmed positive for Meloidogyne enterolobii through NCDA Nematode Assay Lab analysis.
(§2) Trial set-up: Sweet potatoes (cv. Covington) were planted at 11 inch within row spacing and 42 inch rows. Plots were 4 rows wide by 10 ft long, with 10 feet between plots. Plots were maintained by the grower collaborator using standard agronomic practices. Vigor data, soil samples for mid-season nematode counts, and harvest data was collected. At harvest, the middle two rows of each plot were dug by hand and tubers assessed. Data were analyzed, plotted, and effect of treatment on yield and nematode variables was assessed through mean separation in R (v. 3.6.2).
(§3) At harvest a soil sample from each plot was collected and 100 cc of soil extracted to determine nematode populations. Three genera of nematode were observed (RKN, stunt and lesion). Counts for the two highest population species, RKN and Lesion at the harvest sampling are reported per 100 g of soil. Population counts of RKN, lesion, and stunt nematode were transformed (log 10(n+1)) prior to analysis to fit assumptions of normality.

Lesion Nematode = assay: Sweet potato field trial, lesion nematode count at harvest; type: in vivo
Description: as §1, §2, §3

[1] = system: Sweet potatoes (cv. Covington); assay: Sweet potato field trial, yield; type: in vivo
Description: as §1, §2
Formulations and Application rates: Six different wrap and plant formulations and 2 control treatment were tested.
For each plot the tuber were collect and sorted into 2 groups: #1 grade and cutters/jumbos. In addition, the number of #1 tubers were counted.

For O=C(NCCc1ncc(C(F)(F)F)cc1Cl)c1ccccc1C(F)(F)F [Treatment 3, Fluopyram], the “Average RKN Population at Harvest” value (Root Knot Nematode; Table 12) was 12.5 /100 cc soil, the “RKN Population, Average” value (Root Knot Nematode; average of 4 plots) was 12.5 and the “Average Lesion Population at Harvest” value (Lesion Nematode; Table 12) was 118.75 /100 cc soil. For the same compound, the “Lesion Population, Average” value (Lesion Nematode; average of 4 plots) was 118.75, the “Average Total Yield” value ([1]; Table 12) was 22.1 and the “Yield #1 Tubers, Average” value ([1]; average of 4 plots) was 9.8 kg. For the same compound, the “No. of #1 tubers” value ([1]; single plot) was 32 and 36 and 30 and 38, the “Total Yield” value ([1]; single plot) was 22.8 kg and 28.05 kg and 20.9 kg and 16.8 kg and the “Yield of #1” value ([1]; single plot) was 9.35 kg and 12.15 kg and 9.75 kg and 8.1 kg. The “Yield of Jumbo & Canners” value ([1]; single plot) was 13.45 kg and 15.9 kg and 11.15 kg and 8.7 kg and the “Yield #1 Tubers” value ([1]; single plot, Table 10, listed as Grower Standard) was 8.1 kg and 9.4 kg and 12.2 kg and 9.8 kg.
